Measured values published in article PMC4923153, “Protection of Primary Dopaminergic Midbrain Neurons by GPR139 Agonists Supports Different Mechanisms of MPP^+ and Rotenone Toxicity” (Frontiers in Cellular Neuroscience, 2016).

How the values were obtained:
DAT = DAT (Homo sapiens, UniProt Q01959); assay: Inhibition of binding to the DAT (cross reactivity); conditions: concentration not given
Experimental: (§1) None of the compounds were useful in vivo tools due to their unfavorable ADME properties including low whole brain exposure and brain/plasma ratio (Shi et al., [2011]). Cross reactivity with the DAT or the norepinephrine transporter was determined as described (Shi et al., [2011]).
(§2) As both 6-OHDA and MPP^+ are taken up via the DAT, it was not likely that the agonists mediated their protection against MPP^+ by merely blocking the DAT. However, to further exclude the possibility that the protection against MPP^+ by the agonist compound 3 is mediated by blocking MPP^+ uptake, rather than signaling through GPR139, DA and noradrenaline uptake in the presence of the agonist was tested. […] Ten micrometres (10 μM) compound 1 inhibited binding to the DAT or the norepinephrine transporter by 4% or −8%, respectively (Shi et al., [2011]) compound 2 inhibited binding to the DAT or the norepinephrine transporter 2% or −4%, respectively.

[1] = target: norepinephrine transporter (Homo sapiens, UniProt P23975); assay: Inhibition of binding to the norepinephrine transporter (cross reactivity); conditions: concentration not given
Experimental: as §1, §2

human GPR139 receptor = target: T1, human GPR139 receptor (Homo sapiens, UniProt Q6DWJ6); assay: GPR139 calcium mobilization assay (CHO-K1 cells stably expressing the receptor); type: cell-based; conditions: Ca2+ mobilization, determined as described (Shi et al., 2011); read-out: EC50 (GPR139 agonist)
T1 construct: expressed in transfected cells; host or cells: CHO-K1
T1 sequence (Q6DWJ6 1-353): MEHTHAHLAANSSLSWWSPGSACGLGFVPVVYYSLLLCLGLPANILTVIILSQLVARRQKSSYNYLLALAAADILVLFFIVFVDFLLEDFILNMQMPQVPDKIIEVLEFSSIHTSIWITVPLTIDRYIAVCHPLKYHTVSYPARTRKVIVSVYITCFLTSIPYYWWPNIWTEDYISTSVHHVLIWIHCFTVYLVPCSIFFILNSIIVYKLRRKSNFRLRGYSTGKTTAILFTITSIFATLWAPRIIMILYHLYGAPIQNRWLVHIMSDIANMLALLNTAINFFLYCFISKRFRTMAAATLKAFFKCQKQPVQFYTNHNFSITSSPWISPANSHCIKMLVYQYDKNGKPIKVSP
Experimental: EC50 and IC50 for all compounds were determined as described (Shi et al., [2011]).
All compounds were further characterized using GPR139-based Ca^2+ mobilization assays (Figure 5).
Figure 5 Additional characterization of GPR139 compounds using kinetic fluorescence measurements and concentration-response determination in calcium mobilization assays. (A–D) Examples for the kinetic of relative fluorescence units (RFU) for compound 1 and 4 and related controls, involving a two-step addition protocol. (A) Cellular fluorescence response to addition of buffer (approximately at time 0:00 min) and a second addition of buffer at 3:20 min. (B) Cellular fluorescence response to addition of the Ca^2+ ionophore and reference compound for complete release of Ca^2+ from intracellular stores, ionomycin. (C) Cellular response to addition of 10 μM compound 1 at time 0:00. (D) Cellular fluorescence in response to antagonist compound 4 (at 0:00, 50 μM) and addition of agonist compound 1 at EC85 concentration. […]
Standard molecular cloning techniques were used to generate Chinese hamster ovary (CHO-K1) cells stably expressing the human GPR139 receptor. […] Calcium flux was measured using a Hamamatsu FDSS7000 imaging-based plate reader (Hamamatsu Photonics) using 480 nm excitation light and emitted fluorescent light passed through a 525 nm emission filter and detected by a CCD camera. […]

Sequence of norepinephrine transporter (P23975 whole entry, species assumed): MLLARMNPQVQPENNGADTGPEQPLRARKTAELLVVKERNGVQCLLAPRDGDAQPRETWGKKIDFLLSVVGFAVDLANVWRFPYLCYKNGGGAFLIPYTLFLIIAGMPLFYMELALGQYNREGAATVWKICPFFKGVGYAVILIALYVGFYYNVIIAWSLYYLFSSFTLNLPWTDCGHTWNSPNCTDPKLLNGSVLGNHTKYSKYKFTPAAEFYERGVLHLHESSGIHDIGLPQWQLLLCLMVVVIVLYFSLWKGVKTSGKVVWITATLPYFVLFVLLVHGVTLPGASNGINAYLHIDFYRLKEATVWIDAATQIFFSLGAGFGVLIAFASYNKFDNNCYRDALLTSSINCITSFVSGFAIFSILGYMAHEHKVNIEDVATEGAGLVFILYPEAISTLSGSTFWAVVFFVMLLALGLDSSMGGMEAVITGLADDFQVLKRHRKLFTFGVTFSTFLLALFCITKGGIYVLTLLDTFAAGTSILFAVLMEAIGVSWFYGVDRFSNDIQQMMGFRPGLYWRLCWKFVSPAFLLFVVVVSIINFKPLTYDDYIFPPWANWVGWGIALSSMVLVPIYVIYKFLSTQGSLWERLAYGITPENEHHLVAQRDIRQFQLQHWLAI
Sequence of DAT (Q01959 whole entry, species assumed): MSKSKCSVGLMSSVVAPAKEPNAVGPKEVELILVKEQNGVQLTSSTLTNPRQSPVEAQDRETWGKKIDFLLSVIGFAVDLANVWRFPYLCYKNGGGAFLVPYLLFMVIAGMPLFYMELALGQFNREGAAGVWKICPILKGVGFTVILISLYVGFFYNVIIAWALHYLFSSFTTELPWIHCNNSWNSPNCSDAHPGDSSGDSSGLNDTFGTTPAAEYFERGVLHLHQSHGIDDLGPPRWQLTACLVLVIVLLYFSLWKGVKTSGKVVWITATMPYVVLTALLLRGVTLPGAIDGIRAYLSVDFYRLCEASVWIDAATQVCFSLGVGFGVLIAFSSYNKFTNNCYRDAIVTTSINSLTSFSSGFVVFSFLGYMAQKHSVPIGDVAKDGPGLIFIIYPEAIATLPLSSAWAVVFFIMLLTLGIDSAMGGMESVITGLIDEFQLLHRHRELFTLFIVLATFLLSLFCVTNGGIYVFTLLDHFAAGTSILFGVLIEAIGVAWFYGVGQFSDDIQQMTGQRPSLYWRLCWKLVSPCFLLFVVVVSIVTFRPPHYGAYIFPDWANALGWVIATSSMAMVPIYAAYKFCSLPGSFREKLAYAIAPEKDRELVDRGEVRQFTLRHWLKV

SMILES: CN(C)C1CCN(C(=O)CNC(=O)Cc2cccc3ccccc23)C1 (stereo not drawn) [compound 2, N-[2-(3-Dimethylamino-pyrrolidin-1-yl)-2-oxo-ethyl]-2-Naphthalen-1-yl-acetamide]
- inhibition of binding to the DAT (DAT): 2%
- inhibition of binding to the norepinephrine transporter [1]: −4%
- EC50 (human GPR139 receptor): 530 nM
